The record followed here is paper PMC7218274 (Antiviral Chemistry & Chemotherapy, 2020).

Bounds are passed on as bounds.

Data set [1] relates to HAdV-19. In words: MTT-based antiviral assay, HAdV-19-infected MT-2 cells. The note with it: for EC50: Human mastadenovirus D, MT2, 120 h, HAdV-19, five days, MTT, mean ± 1 SD, read-out: EC50 (50% antiviral effective concentration). The class given is cell-based, Human adenovirus type 19. As to the method:
(§1) MT-2 cells and A549 cells were mixed with HAdV-19, 2× 10^5 cells/mL with 10^4 TCID50/mL and 1× 10^5 cells/mL with 3 × 10^3 TCID50/mL, respectively, in plate wells in the presence or absence of various concentrations of the compounds (MOI: 0.035 for MT-2 cells and 0.021 for A549). The plates were incubated for five days. At the end of the incubation period, CPE was determined using the MTT assay, as described previously.[11],[12] Thus, 25 µl of the MTT solution (7.5 mg/ml) in phosphate-buffered saline (Wako, Japan) was added to each well of the plate. Then, the plate was incubated at 37°C for 2 h. After incubation, 150 µl of medium was removed with care in order not to draw cells. To solubilize the formazan crystals and neutralize the viral infectivity, 100 μl of acidified isopropanol (4 ml concentrated HCl per 1 l of isopropanol) containing 10% (v/v) Triton X-100 was added to each well. Formazan crystals were completely solubilized by pipetting up and down, the absorbance at 560 nm of the wells was read by microplate reader (GloMax, Promega, Japan). […] The cytotoxicity of each compound was measured in parallel using the MTT assay. The 50% cytotoxicity concentration (CC50) was defined as the drug concentration that reduces cell viability by 50%.
(In general: Tetrazolium assays rely on reduction of a dye to a coloured formazan, in cell work by metabolically active cells.)

Data set [2] concerns HAdV-19. As to the kind of experiment: MTT-based antiviral assay, HAdV-19-infected A549 cells. The conditions noted are these: for EC50: Human mastadenovirus D, 120 h, HAdV-19, five days, MTT, mean ± 1 SD, read-out: EC50 (50% antiviral effective concentration). The class given is cell-based, Human adenovirus type 19. As to the method: as §1
Data set [3] is described as follows: MTT cytotoxicity assay, MT-2 cells. The class given is cell-based, human. The note with it: human, MTT, mean ± 1 SD, read-out: CC50 (50% cytotoxicity concentration). As to the method:
(§2) MT-2 cells and A549 cells were mixed with HAdV-19, 2× 10^5 cells/mL with 10^4 TCID50/mL and 1× 10^5 cells/mL with 3 × 10^3 TCID50/mL, respectively, in plate wells in the presence or absence of various concentrations of the compounds (MOI: 0.035 for MT-2 cells and 0.021 for A549). The plates were incubated for five days. At the end of the incubation period, CPE was determined using the MTT assay, as described previously.[11],[12] Thus, 25 µl of the MTT solution (7.5 mg/ml) in phosphate-buffered saline (Wako, Japan) was added to each well of the plate. Then, the plate was incubated at 37°C for 2 h. After incubation, 150 µl of medium was removed with care in order not to draw cells. To solubilize the formazan crystals and neutralize the viral infectivity, 100 μl of acidified isopropanol (4 ml concentrated HCl per 1 l of isopropanol) containing 10% (v/v) Triton X-100 was added to each well. Formazan crystals were completely solubilized by pipetting up and down, the absorbance at 560 nm of the wells was read by microplate reader (GloMax, Promega, Japan). The 50% antiviral effective concentration (EC50) was defined as the drug concentration that protects 50% of virus-infected cells from virus-induced cell damage and/or death.[12] The cytotoxicity of each compound was measured in parallel using the MTT assay. The 50% cytotoxicity concentration (CC50) was defined as the drug concentration that reduces cell viability by 50%. Data shown represent mean EC50 and CC50values (±1 standard deviation) derived from the results of two to four independent experiments conducted in duplicate.

For a further data set, the system named is MT-2 cells. In words: MTT cytotoxicity assay, MT-2 cells. The class given is cell-based, human. The note with it: at a concentration of 100 µM. As to the method:
as §2

Data set [4] can be described thus: MTT cytotoxicity assay, A549 cells. The format is cell-based, human. The note with it: human, MTT, mean ± 1 SD, read-out: CC50 (50% cytotoxicity concentration). As to the method: as §2
Another data set has as its system A549 cells. As to the kind of experiment: MTT cytotoxicity assay, A549 cells. The note with it: at a concentration of 100 µM. The class given is cell-based, human. As to the method: as §2

For `Nc1ccn(C[C@@H](CO)OCP(=O)(O)O)c(=O)n1` [CDV, (S)-1–(3-hydroxy-2-phosphonylmethoxypropyl)cytosine], the “SI (selectivity index, ratio of CC50 and EC50)” value is more than 1.6 in the data set with HAdV-19 [1] and more than 24 in the data set with HAdV-19 [2]. The EC50 with HAdV-19 [1] stood at 62 ± 26 µM; in the data set with HAdV-19 [2] it was 4.2 ± 1.1 µM. Also, the CC50 at 5 days in data set [3] and in data set [4] was more than 100 µM throughout. In addition, the tolerance by cells result with MT-2 cells and in the data set with A549 cells was “tolerated” in each case.
Take `NC(=O)c1ncn([C@@H]2O[C@H](CO)[C@@H](O)[C@H]2O)n1` [RBV, ribavirin]: the EC50 in the data set on HAdV-19 [1] is more than 18 µM; with HAdV-19 [2], more than 53 µM. The “antiviral activity against HAdV-19 (in words)” value in the data set on HAdV-19 [1] (MTT assay) is recorded as “little antiviral activity”. In addition, the figures for the CC50 at 5 days in data set [3] and in data set [4] were 18 ± 1 µM and 53 ± 21 µM, respectively.
With `Nc1nc(O)c2ncn(COC(CO)CO)c2n1` [GCV, ganciclovir], the figures for the “SI (selectivity index, ratio of CC50 and EC50)” value in the data set with HAdV-19 [1] and with HAdV-19 [2] were more than 1.7 and more than 1.9, respectively. For the same compound, the EC50 in the data set with HAdV-19 [1] was 60 ± 7 µM; in the data set on HAdV-19 [2], 54 ± 27 µM. The CC50 at 5 days in data set [3] and in data set [4] was more than 100 µM throughout. Moreover, the tolerance by cells result in the data set on MT-2 cells and in the data set on A549 cells was “tolerated” in each case.
For the compound `Nc1ccn([C@H]2CC[C@@H](CO)O2)c(=O)n1` [ddC, 2′,3′-dideoxycytidine], the “SI (selectivity index, ratio of CC50 and EC50)” value in the data set on HAdV-19 [1] is recorded as more than 38; in the data set with HAdV-19 [2], more than 286. Moreover, the results for the EC50 in the data set with HAdV-19 [1] and in the data set with HAdV-19 [2] were 2.6 ± 0.4 µM and 0.35 ± 0.04 µM, respectively. Besides, the CC50 at 5 days in data set [3] and in data set [4] was more than 100 µM throughout. For the same compound, the tolerance by cells entry in the data set with MT-2 cells and in the data set on A549 cells was “tolerated” throughout.
As for `Cc1cn([C@H]2C[C@H](F)[C@@H](CO)O2)c(=O)[nH]c1=O` [FdT, 3′-deoxy-3′-fluorothymidine], the EC50 in the data set with HAdV-19 [1] amounted to 1.8 ± 0.2 µM; with HAdV-19 [2], 0.03 ± 0.01 µM. The CC50 at 5 days in data set [3] is 36 ± 5 µM; in data set [4], 7.6 ± 4.2 µM.
